Results taken from patent US11987586B1 (TAKEDA PHARMACEUTICAL COMPANY LIMITED, priority 2022, dated 2024).

Biological target: T1, human OX2 receptor (Homo sapiens, UniProt O43614)
T1 construct: expressed in transfected cells
T1 sequence (O43614 1-444): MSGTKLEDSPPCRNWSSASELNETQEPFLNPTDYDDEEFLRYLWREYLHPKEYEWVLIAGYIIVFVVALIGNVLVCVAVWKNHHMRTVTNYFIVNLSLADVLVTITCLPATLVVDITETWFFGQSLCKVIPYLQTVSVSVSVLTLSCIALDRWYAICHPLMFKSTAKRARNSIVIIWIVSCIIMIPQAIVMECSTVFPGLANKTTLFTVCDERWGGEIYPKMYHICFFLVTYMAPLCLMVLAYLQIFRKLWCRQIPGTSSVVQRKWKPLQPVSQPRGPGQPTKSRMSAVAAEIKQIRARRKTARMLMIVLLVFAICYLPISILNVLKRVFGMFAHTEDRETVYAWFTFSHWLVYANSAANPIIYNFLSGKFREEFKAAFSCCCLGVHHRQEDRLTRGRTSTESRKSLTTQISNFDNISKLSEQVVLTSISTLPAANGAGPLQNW
Test: Measurement of orexin type 2 receptor agonist activity (calcium fluorescence, Fluo-4, FDSS)
Type: cell-based
Conditions: 3 uM test compound; CHO cells expressing human OX2 receptor; DMSO = 0%, 10 nM orexin A (human) = 100%
Method in brief: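 Agonist activity (%) was normalised to the response to 10 nM final human orexin A (100%) and to the DMSO vehicle (0%). The response was measured as the Fluo-4 calcium signal, read kinetically over 1 min 40 s after compound addition to Fluo-4/probenecid-loaded stable CHO-K1 clones expressing human OX2 (aa 1-444).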

Row | SMILES | OX2R agonist activity (3 uM, %) [%]
1 | Cc1cc(-c2c(F)cccc2F)c2c(-n3cc4n(c3=O)C[C@@H](NS(C)(=O)=O)C4(F)F)noc2c1 [Example 180, N-{(6R)-2-[4-(2,6-difluorophenyl)-6-methyl-1,2-benzoxazol-3-yl]-7,7-difluoro-3-oxo-2,5,6,7-tetrahydro-3H-pyrrolo[1,2-c]imidazol-6-yl}methanesulfonamide] | 100
2 | CCS(=O)(=O)N[C@@H]1Cn2c(cn(-c3noc4cc(COC)c(F)c(-c5c(F)cccc5F)c34)c2=O)C1(F)F [Example 212, N-{(6R)-2-[4-(2,6-difluorophenyl)-5-fluoro-6-(methoxymethyl)-1,2-benzoxazol-3-yl]-7,7-difluoro-3-oxo-2,5,6,7-tetrahydro-3H-pyrrolo[1,2-c]imidazol-6-yl}ethanesulfonamide] | 100
3 | CS(=O)(=O)N[C@@H]1Cn2c(cn(-c3noc4cc(Cl)cc(-c5c(F)cc(F)cc5F)c34)c2=O)C1(F)F [Example 90, N-{(6R)-2-[6-chloro-4-(2,4,6-trifluorophenyl)-1,2-benzoxazol-3-yl]-7,7-difluoro-3-oxo-2,5,6,7-tetrahydro-3H-pyrrolo[1,2-c]imidazol-6-yl}methanesulfonamide] | 107
4 | CS(=O)(=O)N[C@@H]1CN2C(=O)N(c3noc4ccc(F)c(-c5c(F)cc(F)cc5F)c34)C[C@@H]2C1(F)F [Example 47, N-{(6R,7aR)-7,7-Difluoro-2-[5-fluoro-4-(2,4,6-trifluorophenyl)-1,2-benzoxazol-3-yl]-3-oxohexahydro-1H-pyrrolo[1,2-c]imidazol-6-yl}methanesulfonamide] | 91
5 | O=C1N(c2noc3cc(F)cc(-c4c(F)cc(F)cc4F)c23)C[C@H]2N1C[C@@H](NS(=O)(=O)CF)C2(F)F [Example 266] | 103
6 | O=C1N(c2noc3cccc(-c4c(F)cccc4F)c23)C[C@H]2N1C[C@@H](NS(=O)(=O)C1CC1)C2(F)F [Example 89, N-{(6R,7aR)-2-[4-(2,6-difluorophenyl)-1,2-benzoxazol-3-yl]-7,7-difluoro-3-oxohexahydro-1H-pyrrolo[1,2-c]imidazol-6-yl}cyclopropanesulfonamide] | 95
7 | CCS(=O)(=O)N[C@@H]1Cn2c(cn(-c3noc4cc(Cl)c(F)c(-c5c(F)cc(F)cc5F)c34)c2=O)C1(F)F [Example 94, N-{(6R)-2-[6-chloro-5-fluoro-4-(2,4,6-trifluorophenyl)-1,2-benzoxazol-3-yl]-7,7-difluoro-3-oxo-2,5,6,7-tetrahydro-3H-pyrrolo[1,2-c]imidazol-6-yl}ethanesulfonamide] | 106
8 | CCS(=O)(=O)N[C@@H]1CN2C(=O)N(c3noc4cc(C)cc(-c5c(F)cc(F)cc5F)c34)C[C@@H]2C1(F)F [Example 153, N-{(6R,7aR)-7,7-difluoro-2-[6-methyl-4-(2,4,6-trifluorophenyl)-1,2-benzoxazol-3-yl]-3-oxohexahydro-1H-pyrrolo[1,2-c]imidazol-6-yl}ethanesulfonamide] | 96
9 | CCS(=O)(=O)N[C@@H]1Cn2c(cn(-c3noc4cc(C)c(F)c(-c5c(F)cccc5F)c34)c2=O)C1(F)F [Example 169, N-{(6R)-2-[4-(2,6-difluorophenyl)-5-fluoro-6-methyl-1,2-benzoxazol-3-yl]-7,7-difluoro-3-oxo-2,5,6,7-tetrahydro-3H-pyrrolo[1,2-c]imidazol-6-yl}ethanesulfonamide] | 103
10 | CCS(=O)(=O)N[C@@H]1CN2C(=O)N(c3noc4cc(F)cc(-c5ncc(F)cc5F)c34)CC[C@@H]2C1(F)F [Example 254, N-{(4aR,6R)-2-[4-(3,5-difluoropyridin-2-yl)-6-fluoro-1,2-benzoxazol-3-yl]-5,5-difluoro-1-oxooctahydropyrrolo[1,2-c]pyrimidin-6-yl}ethanesulfonamide] | 95
11 | CCS(=O)(=O)N[C@H]1C[C@H]2CN(c3noc4cccc(-c5c(F)cccc5C(F)(F)F)c34)C(=O)N2C1 [Example 32, N-[ (6S,7aS)-2-{4-[2-fluoro-6-(trifluoromethyl)phenyl]-1,2-benzoxazol-3-yl}-3-oxohexahydro-1H-pyrrolo[1,2-c]imidazol-6-yl] ethanesulfonamide] | 94
12 | CCS(=O)(=O)N[C@@H]1CN2C(=O)N(c3noc4cc(F)c(F)c(-c5c(F)cc(F)cc5F)c34)CC[C@@H]2C1(F)F [Example 304, N-{(4aR,6R)-2-[5,6-difluoro-4-(2,4,6-trifluorophenyl)-1,2-benzoxazol-3-yl]-5,5-difluoro-1-oxooctahydropyrrolo[1,2-c]pyrimidin-6-yl}ethanesulfonamide] | 117
13 | O=C1N(c2noc3cc(OC(F)F)cc(-c4c(F)cc(F)cc4F)c23)CC[C@H]2N1C[C@@H](NS(=O)(=O)C1CC1)C2(F)F [Example 316, N-{(4aR,6R)-2-[6-(difluoromethoxy)-4-(2,4,6-trifluorophenyl)-1,2-benzoxazol-3-yl]-5,5-difluoro-1-oxooctahydropyrrolo[1,2-c]pyrimidin-6-yl}cyclopropanesulfonamide] | 105
14 | CCS(=O)(=O)N[C@@H]1CN2C(=O)N(c3noc4nc(C)cc(-c5c(F)cc(F)cc5F)c34)C[C@@H]2C1(F)F [Example 175, N-{(6R,7aR)-7,7-difluoro-2-[6-methyl-4-(2,4,6-trifluorophenyl)[1,2]oxazolo[5,4-b]pyridin-3-yl]-3-oxohexahydro-1H-pyrrolo[1,2-c]imidazol-6-yl}ethanesulfonamide] | 98
15 | CCOc1cc(-c2c(F)cccc2F)c2c(N3CC[C@H]4N(C[C@@H](NS(=O)(=O)CC)C4(F)F)C3=O)noc2c1 [Example 299, N-{(4aR,6R)-2-[4-(2,6-difluorophenyl)-6-ethoxy-1,2-benzoxazol-3-yl]-5,5-difluoro-1-oxooctahydropyrrolo[1,2-c]pyrimidin-6-yl}ethanesulfonamide] | 104
16 | CS(=O)(=O)N[C@@H]1CN2C(=O)N(c3noc4cccc(-c5c(F)cccc5F)c34)CC[C@@H]2C1(F)F [Example 206, N-{(4aR,6R)-2-[4-(2,6-difluorophenyl)-1,2-benzoxazol-3-yl]-5,5-difluoro-1-oxooctahydropyrrolo[1,2-c]pyrimidin-6-yl}methanesulfonamide] | 110
17 | CS(=O)(=O)N[C@@H]1CN2C(=O)N(c3noc4cc(OC(F)F)cc(-c5c(F)cc(F)cc5F)c34)CC[C@@H]2C1(F)F [Example 296, N-{(4aR,6R)-2-[6-(difluoromethoxy)-4-(2,4,6-trifluorophenyl)-1,2-benzoxazol-3-yl]-5,5-difluoro-1-oxooctahydropyrrolo[1,2-c]pyrimidin-6-yl}methanesulfonamide] | 102
18 | CCS(=O)(=O)N[C@H]1C[C@H]2CCN(c3noc4cccc(-c5c(F)cc(F)cc5F)c34)C(=O)N2C1 [Example 205, N-{(4aR,6S)-1-oxo-2-[4-(2,4,6-trifluorophenyl)-1,2-benzoxazol-3-yl]octahydropyrrolo[1,2-c]pyrimidin-6-yl}ethanesulfonamide] | 107
19 | CCS(=O)(=O)NC1Cn2c(C)c(-c3noc4cccc(-c5c(F)cccc5F)c34)c(=O)n2C1 (single isomer, unassigned) [Example 336, N-{(2R*)-6-[4-(2,6-difluorophenyl)-1,2-benzoxazol-3-yl]-7-methyl-5-oxo-2,3-dihydro-1H,5H-pyrazolo[1,2-a]pyrazol-2-yl}ethanesulfonamide] | 98
20 | Cc1cc2onc(N3C[C@H]4N(C[C@@H](NS(C)(=O)=O)C4(F)F)C3=O)c2c(-c2c(F)cc(F)cc2F)n1 [Example 191, N-{(6R,7aR)-7,7-difluoro-2-[6-methyl-4-(2,4,6-trifluorophenyl)[1,2]oxazolo[4,5-c]pyridin-3-yl]-3-oxohexahydro-1H-pyrrolo[1,2-c]imidazol-6-yl}methanesulfonamide] | 98
21 | CS(=O)(=O)N[C@@H]1Cn2c(cn(-c3noc4cc(OC(F)(F)F)cc(-c5c(F)cc(F)cc5F)c34)c2=O)C1(F)F [Example 176, N-{(6R)-7,7-difluoro-3-oxo-2-[6-(trifluoromethoxy)-4-(2,4,6-trifluorophenyl)-1,2-benzoxazol-3-yl]-2,5,6,7-tetrahydro-3H-pyrrolo[1,2-c]imidazol-6-yl}methanesulfonamide] | 89
22 | Cc1cc2onc(-n3cc4n(c3=O)C[C@@H](NS(=O)(=O)N(C)C)C4(F)F)c2c(-c2c(F)cc(F)cc2F)n1 [Example 218, N′-{(6R)-7,7-difluoro-2-[6-methyl-4-(2,4,6-trifluorophenyl)[1,2]oxazolo[4,5-c]pyridin-3-yl]-3-oxo-2,5,6,7-tetrahydro-3H-pyrrolo[1,2-c]imidazol-6-yl}-N,N-dimethylsulfuric diamide] | 108
23 | CCS(=O)(=O)N[C@@H]1CN2C(=O)N(c3noc4cccc(-c5ccc(F)cc5Cl)c34)CC[C@@H]2C1(F)F [Example 329, N-{(4aR,6R)-2-[4-(2-chloro-4-fluorophenyl)-1,2-benzoxazol-3-yl]-5,5-difluoro-1-oxooctahydropyrrolo[1,2-c]pyrimidin-6-yl}ethanesulfonamide] | 101
